Assay results published in the METLIN SMRT retention time set (Domingo-Almenara et al. 2019).

Experiment: gradient 5% acetonitrile 3 min, to 50% in 2 min, to 85% in 15 min, held 3 min, 100 µL/min
Details: column: Zorbax Extend-C18 2.1 x 50 mm; eluents: water / acetonitrile, 0.1% formic acid
In short: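 Pure standards were run in mixtures of ~100 molecules by HPLC coupled to a quadrupole time-of-flight mass spectrometer. The column was a Zorbax Extend-C18 (2.1 × 50 mm, 1.8 μm) at 100 μL/min, with water and acetonitrile each containing 0.1% formic acid, in positive and negative ionization mode. Dead and dwell volumes were 40 μL and 900 μL. Retention time was taken from computationally picked adduct peaks, each manually inspected, with data collected over 3 months.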

| SMILES | RP-LC retention time |
| --- | --- |
| COC(=O)CNC(=O)C1c2ccccc2C(=O)N(Cc2ccccc2)C12CCCC2 (stereo not given) | 857 s |
| C[C@H]1CCCC(=O)CCC/C=C/c2c(O)cc(O)cc2C(=O)O1 | 888 s |
| CCCn1cc(CCNC(=O)Nc2ccc(Cl)cc2F)c2cccnc21 | 876 s |
| O=C1c2ccccc2C(=O)c2nc(-c3ccccc3)c(-c3ccccc3)nc21 | 1030 s |
| CC(C)c1nnc(NC(=O)C2CC(=O)N(CCc3c[nH]c4ccc(F)cc34)C2)s1 (stereo not given) | 746 s |
| O=C(C1CC1)N1CCCN(c2ccc([N+](=O)[O-])cc2)CC1 | 688 s |
| Cc1ccc(C(=O)NC2CCN(c3ccccc3)C2=O)c(C)c1 (stereo not given) | 797 s |
| O=C(c1cc(S(=O)(=O)N2CCCC(C(=O)N3CCCCCC3)C2)c[nH]1)N1CCCC1 (stereo not given) | 729 s |
| COc1ccc(NC(=O)N2CCc3nc(-c4ccccc4)ncc3C2)cc1OC | 804 s |
| CCC1CN2C=Nc3oc(C)c(C(=O)Nc4ccc5c(c4)OCO5)c3C2=N1 (stereo not given) | 632 s |
| CCSc1nc2ccc(NS(=O)(=O)c3cccc4nsnc34)cc2s1 | 977 s |
| O=C(c1ccccc1Br)N1CCN(c2nc(CN3CCCC3)cs2)CC1 | 627 s |
| CCOCC(=O)N1C[C@H]2C[C@H](C1)[C@H]1CCCC(=O)N1C2 | 582 s |
| COc1cc(OC)cc(C(=O)N2CCC3(C2)C(=O)N(C)c2ccccc23)c1 (stereo not given) | 770 s |
| Cc1nc(-c2ccccn2)cc2nn(CC(=O)N3CCCc4ccccc43)c(=O)n12 | 789 s |
| CCNc1ncnc2sc3c(c12)CCN(C(=O)CC)C3 | 617 s |
| O=C(NCc1cccc(Cl)c1)c1ccc2c(c1)ncn2CCN1CCCC1 | 601 s |
| Fc1ccc(Cn2cc(-c3noc(C4CCCC4)n3)nn2)cc1 | 991 s |
| COc1ccc(-c2cc(N3CCN(C(=O)NCCC(C)C)CC3)ncn2)cc1OC | 658 s |
| CC1=C(c2cccc(Cl)c2)S(=O)(=O)N=C1N1CCC(NC(=O)C2CCCO2)CC1 (stereo not given) | 771 s |
| Nc1nc(SCC(=O)Nc2ccc(F)c(Cl)c2)n[nH]1 | 621 s |
| CC(C)NC(=O)c1ccc(OCC2CCN(C(=O)c3ccccc3)CC2)cc1 | 828 s |
| Nc1ccc(C(=O)Nc2cccc(N)c2)cc1 | 752 s |

| SMILES | RP-LC retention time |
| --- | --- |
| COCC1CN(C2CCC2)CC12CCN(C(=O)Cc1ccsc1)CC2 (stereo not given) | 608 s |
| Cc1cc(C)c(OCC(=O)N(Cc2ccc(C)o2)C2CCS(=O)(=O)C2)c(C)c1 (stereo not given) | 1030 s |
| COCCCNC(=O)c1ccc(-c2ccc(Oc3ccccc3)nn2)cc1 | 757 s |
| O=C(Cc1ccsc1)Nc1cccc(-c2nnc3n2CCCC3)c1 | 668 s |
| CCCSCCCNc1nc(-c2nnc(-c3ccc(C)cc3)o2)nc2ccccc12 | 1160 s |
| Cc1ccc(CNC(=O)C2CCN(S(=O)(=O)c3cc(-c4noc(C)n4)cs3)CC2)cc1 | 702 s |
| Cc1cc(C(=O)N2CCCCCC2c2nnc(C)o2)c(C)o1 (stereo not given) | 755 s |
| CCCS(=O)(=O)N1CCC(c2nc(CCOc3ccc(F)cc3)no2)C1 (stereo not given) | 894 s |
| O=C(Nc1ccccc1)Nc1c(-c2ccc(F)cc2)nc2ccccn12 | 662 s |
| O=C(NC1(c2nc(-c3ccncc3)no2)CCCCC1)c1ccccn1 | 885 s |
| COc1ccccc1-c1nc2nccc(-c3ccc(Cl)cc3)n2n1 | 956 s |
| CCc1ccc(NC(=O)Cn2cnc3nc(N4CCCC(C(=O)NC5CC5)C4)sc3c2=O)cc1 (stereo not given) | 743 s |
| COC(=O)c1ccccc1Sc1c(-c2ccccc2)nc2ncccn12 | 875 s |
| Cc1nc(C)c(C(=O)NCC2CCCCC(=O)N2)s1 (stereo not given) | 595 s |
| Cc1nn(C(C)C)c(C)c1S(=O)(=O)N1CCN(C(=O)C(C)Oc2ccccc2)CC1 (stereo not given) | 665 s |
| CCOc1ccc(CNC(=O)C2CCN(Cc3cn(C)c4ccc(Cl)cc34)CC2)cc1OC | 717 s |
| Cn1nccc1C(=O)N1CCC(c2cc(-c3ccc(F)cc3)n[nH]2)CC1 | 712 s |
| COC(=O)c1c(NCC2CCCO2)c2cccc(Cl)c2[nH]c1=O (stereo not given) | 703 s |
| Cc1nn(-c2ccc3nnc(C)n3n2)c(C)c1CCC(=O)NCCc1c[nH]c2ccccc12 | 726 s |
| Cc1ccc(CNC(=O)C(=O)NCC(c2ccc3c(c2)CCCN3C)N2CCCC2)cc1 (stereo not given) | 746 s |
| COC(=O)c1c(NCCc2c[nH]c3ccccc23)c2cc(F)ccc2[nH]c1=O | 770 s |
| O=C(COc1ccc(Cl)cc1Cl)N(Cc1ccccn1)Cc1ccco1 | 830 s |
| O=C(Nc1cccc(F)c1)c1c(O)c2cccnc2n(-c2cccc(F)c2)c1=O | 723 s |

| SMILES | RP-LC retention time |
| --- | --- |
| Cc1nn2c(CNS(=O)(=O)c3ccc(Cl)cc3)c(-c3ccccc3)nc2s1 | 932 s |
| O=C(Nc1cccc(C(F)(F)F)c1)c1cc2ncc(Br)cn2n1 | 982 s |
| CCN1CCN(C(=O)c2nc(-c3ccnc(N4CCCCC4)c3)no2)CC1 | 568 s |
| COc1ccc(CCNC(=O)Cn2nc3c(Oc4ccccc4)nccn3c2=O)cc1OC | 700 s |
| CCN(CC)c1ccc(NC(=O)c2nc3nc(C)cc(C(F)F)n3n2)cc1 | 598 s |
| Cc1sc2ccn(CC(C)C)c(=O)c2c1C(=O)N1CCCCC1 | 837 s |
| O=C(Cn1c(=O)c2cccn2c2ccccc21)NCCN1CCOCC1 | 592 s |
| Cc1c(S(=O)(=O)N2CCC(Cc3ccccc3)CC2)c(=O)n(C)c(=O)n1C | 870 s |
| COCC1(F)CCN(Cc2c(-c3ccc(C)cc3)nc3c(C)cccn23)CC1 | 608 s |
| Cc1ccc(-c2ccc(-n3nc(C)c(S(=O)(=O)N4CCN(C)CC4)c3C)nn2)cc1 | 695 s |
| CN(CC(=O)N1CCN(c2ccccc2F)CC1)S(=O)(=O)c1ccc2c(c1)CCCC(=O)N2 | 768 s |
| CN(C)c1nc2ncn3c(=O)n(CC(=O)NC4CCCC4)nc3c2s1 | 647 s |
| CCN1CCN(CCNC(=O)c2cc(=O)n3c(nc4ccccc43)s2)CC1 | 604 s |
| Clc1ccc2nc(-c3cccc(Br)c3)c(Nc3ccc4c(c3)OCCO4)n2c1 | 972 s |
| Cc1ccccc1Nc1c(-c2c(F)cccc2Cl)nc2ccccn12 | 739 s |
| O=c1c2nc(-c3cccc(Cl)c3)cn2ccn1-c1ccc(F)cc1 | 864 s |
| COc1cccc(NC(=O)Cn2c3ccccc3n3c(=O)cc(-c4ccc(F)cc4)nc23)c1 | 961 s |
| CCNC(=O)C1CCCN(c2nc3ncn(CC(=O)Nc4ccc5c(c4)CCC5)c(=O)c3s2)C1 (stereo not given) | 717 s |
| C[C@H]1CN(C(=O)Nc2ccccc2Cl)C[C@@H]1c1nc(-c2ccncc2)no1 | 854 s |
| COc1ccc(N2CCCn3c2nc2c3c(=O)n(CC(=O)O)c(=O)n2C)cc1 | 660 s |
| CCCn1ncc(N2CCC(C(=O)NC(C)c3cccs3)CC2)cc1=O (stereo not given) | 716 s |
| COc1ccccc1C(=O)NC1CCN(c2ccccc2)C1=O (stereo not given) | 789 s |
| COc1ccc(C2CC(=O)N(c3ccc(C)c(F)c3)C(=O)C2)cc1 | 954 s |

| SMILES | RP-LC retention time |
| --- | --- |
| CC(N)c1cccc(Cl)c1Cl (stereo not given) | 636 s |
| Cc1ccc(C(=O)N2C[C@@H]3C[C@H]2C[C@@H]3NS(=O)(=O)c2cccnc2)cc1F | 716 s |
| CCOC(=O)C1CCC(CNC(=O)Nc2ccc3nc(N4CCN(C)CC4)cc(C)c3c2)CC1 (stereo not given) | 584 s |
| Cc1nc(-c2csc(S(=O)(=O)N3CCN(c4cccc(Cl)c4)CC3)c2)sc1C | 1270 s |
| Cc1noc(C2CN(Cc3cc(Br)ccc3F)C2)n1 | 554 s |
| CCCNC(=O)CCC1CCN(S(=O)(=O)c2ccccc2)CC1 | 784 s |
| O=C1[C@H]2CN(Cc3ccccc3OC(F)(F)F)C[C@H]2C(=O)N1Cc1ccc2c(c1)OCO2 | 1050 s |
| Cc1ccc(Cl)cc1NS(=O)(=O)c1c(C)sc(C)c1-c1cc(C(F)(F)F)on1 | 1220 s |
| CCc1cc(=O)n(CC(=O)Nc2ccccc2F)c(-c2cccc(F)c2)n1 | 1170 s |
| O=C(NCc1ccc(N2CCOCC2)cc1)c1cccc2c1CCN2C(=O)C1CC1 | 735 s |
| Cc1cccc2nnc(N3CCC(C(=O)Nc4cccc(F)c4)CC3)n12 | 697 s |
| Cc1ccc(F)c(NC(=O)c2cnc(-c3ccc(F)cc3)nc2-c2ccncc2)c1 | 954 s |
| CCc1c(C(=O)O)nnn1-c1ccc(C(F)(F)F)cc1 | 800 s |
| C=CCn1c(=O)c2ccccc2n(Cc2nc(-c3ccc(CC)cc3)no2)c1=O | 1160 s |
| CCn1nc(C(=O)Nc2nc3c(OC)ccc(C)c3s2)cc1C | 872 s |
| COc1ccc(-c2ccc(C#N)c(SCC(=O)N3CCN(C)CC3)n2)cc1 | 583 s |
| Cc1c(Cl)cccc1NC(=O)C1CCCN(c2nc3c(s2)c(C)nn3-c2ccccc2)C1 (stereo not given) | 1250 s |
| CCc1ccc(N2C(=O)C3N=NN(c4cccc(OC)c4)C3C2=O)cc1 (stereo not given) | 1020 s |
| O=C(O)c1nnn(-c2cccc(Cl)c2)c1-c1cccnc1 | 680 s |
| Cc1noc(CNC(=O)CN(C)c2nc3c(C)ccc(C)c3s2)n1 | 772 s |
| Cc1cc(-c2nnc(NC(=O)C(C)(C)Oc3ccc(Cl)cc3)o2)c(C)o1 | 955 s |
